The source of these data is article PMC4539532 (Bioorganic & medicinal chemistry letters, 2015).

For one data set, the target named is mGlu4 (Homo sapiens, UniProt Q14833). Nature of the data set: competitive binding assay with [^3H]2 in mGlu4 transfected CHO cells. The settings on record: 14 versus 13; 23 versus 2.
A short description of data set [1]: in vitro microsomal stability. As to conditions: n=2, T1/2=Ln2/κ.
The conditions of data set [2]: cited from earlier work; for Tmax for brain: rat brain, intraperitoneal injection.
The conditions of data set [3]: PET ligand for PBR, cited from earlier work.
A further data set has as its target mGlu2 (Homo sapiens, UniProt Q14416). Nature of the data set: selectivity functional assay on mGlu2. Type of data set: cell-based.
The next data set deals with mGlu8 (Homo sapiens, UniProt O00222). In words: selectivity functional assay on mGlu8. It is filed as cell-based.
The target in the next data set is mGlu6 (Homo sapiens, UniProt O15303). Nature of the data set: selectivity functional assay on mGlu6. Type of data set: cell-based.
A further data set addresses mGlu5 (Homo sapiens, UniProt P41594). In words: selectivity functional assay on mGlu5. It is filed as cell-based.
The target in the next data set is mGlu1 (Homo sapiens, UniProt Q13255). Nature of the data set: selectivity functional assay on mGlu1. Type of data set: cell-based.
Chain of mGlu1 (Q13255 19-1194): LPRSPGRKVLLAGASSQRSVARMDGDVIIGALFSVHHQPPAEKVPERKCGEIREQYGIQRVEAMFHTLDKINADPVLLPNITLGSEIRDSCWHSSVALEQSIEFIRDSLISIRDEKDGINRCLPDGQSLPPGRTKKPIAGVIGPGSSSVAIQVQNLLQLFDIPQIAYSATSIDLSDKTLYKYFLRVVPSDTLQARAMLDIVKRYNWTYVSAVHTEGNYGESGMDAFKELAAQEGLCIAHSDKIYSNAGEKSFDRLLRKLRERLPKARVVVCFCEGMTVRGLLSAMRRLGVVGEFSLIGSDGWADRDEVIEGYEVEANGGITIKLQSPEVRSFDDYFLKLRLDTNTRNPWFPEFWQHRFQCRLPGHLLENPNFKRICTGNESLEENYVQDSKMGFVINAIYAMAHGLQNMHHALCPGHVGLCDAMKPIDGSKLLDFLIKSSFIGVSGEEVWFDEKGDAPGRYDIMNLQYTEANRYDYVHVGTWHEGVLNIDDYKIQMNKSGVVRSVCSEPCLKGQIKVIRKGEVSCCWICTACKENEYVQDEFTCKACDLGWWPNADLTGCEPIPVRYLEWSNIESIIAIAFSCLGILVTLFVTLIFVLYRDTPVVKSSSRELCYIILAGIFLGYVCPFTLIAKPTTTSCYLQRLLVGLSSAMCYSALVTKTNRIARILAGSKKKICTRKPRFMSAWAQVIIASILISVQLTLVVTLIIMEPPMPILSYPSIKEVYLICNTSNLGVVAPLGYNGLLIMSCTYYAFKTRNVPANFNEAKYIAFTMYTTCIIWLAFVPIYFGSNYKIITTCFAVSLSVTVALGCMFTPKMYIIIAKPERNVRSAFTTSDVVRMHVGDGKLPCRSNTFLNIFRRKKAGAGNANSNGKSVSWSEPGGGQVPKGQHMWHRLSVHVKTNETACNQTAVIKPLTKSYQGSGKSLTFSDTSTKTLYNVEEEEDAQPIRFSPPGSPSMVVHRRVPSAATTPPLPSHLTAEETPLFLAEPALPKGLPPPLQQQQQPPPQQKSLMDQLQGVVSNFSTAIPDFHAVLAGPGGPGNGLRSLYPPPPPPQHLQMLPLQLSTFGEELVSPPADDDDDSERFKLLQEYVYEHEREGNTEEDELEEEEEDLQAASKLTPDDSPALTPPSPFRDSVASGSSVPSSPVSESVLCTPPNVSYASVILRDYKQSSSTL

Chain of mGlu4 (Q14833 33-912): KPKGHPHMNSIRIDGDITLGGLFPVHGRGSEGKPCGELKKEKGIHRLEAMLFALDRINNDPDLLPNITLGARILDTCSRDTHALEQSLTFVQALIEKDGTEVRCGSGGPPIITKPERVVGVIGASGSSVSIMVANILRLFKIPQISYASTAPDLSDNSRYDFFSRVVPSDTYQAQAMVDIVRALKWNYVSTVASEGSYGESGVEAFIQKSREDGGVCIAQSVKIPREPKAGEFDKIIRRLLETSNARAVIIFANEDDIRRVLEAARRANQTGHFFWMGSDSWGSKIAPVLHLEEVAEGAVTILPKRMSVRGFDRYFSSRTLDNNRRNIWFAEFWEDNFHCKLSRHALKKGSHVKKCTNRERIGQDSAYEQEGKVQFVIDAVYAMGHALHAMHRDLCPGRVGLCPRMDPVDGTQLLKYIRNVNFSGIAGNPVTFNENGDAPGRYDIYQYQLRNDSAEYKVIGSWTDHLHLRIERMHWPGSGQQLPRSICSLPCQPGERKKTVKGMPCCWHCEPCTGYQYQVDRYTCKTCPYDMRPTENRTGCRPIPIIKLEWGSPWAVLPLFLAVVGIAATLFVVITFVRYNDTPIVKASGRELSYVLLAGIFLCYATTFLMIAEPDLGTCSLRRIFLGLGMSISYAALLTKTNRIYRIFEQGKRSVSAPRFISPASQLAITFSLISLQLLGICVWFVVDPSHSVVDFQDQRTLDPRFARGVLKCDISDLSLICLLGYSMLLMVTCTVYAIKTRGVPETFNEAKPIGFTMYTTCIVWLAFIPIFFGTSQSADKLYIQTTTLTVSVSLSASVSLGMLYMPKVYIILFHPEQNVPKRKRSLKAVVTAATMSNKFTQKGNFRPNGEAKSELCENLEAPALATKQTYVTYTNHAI
Chain of mGlu5 (P41594 21-1212): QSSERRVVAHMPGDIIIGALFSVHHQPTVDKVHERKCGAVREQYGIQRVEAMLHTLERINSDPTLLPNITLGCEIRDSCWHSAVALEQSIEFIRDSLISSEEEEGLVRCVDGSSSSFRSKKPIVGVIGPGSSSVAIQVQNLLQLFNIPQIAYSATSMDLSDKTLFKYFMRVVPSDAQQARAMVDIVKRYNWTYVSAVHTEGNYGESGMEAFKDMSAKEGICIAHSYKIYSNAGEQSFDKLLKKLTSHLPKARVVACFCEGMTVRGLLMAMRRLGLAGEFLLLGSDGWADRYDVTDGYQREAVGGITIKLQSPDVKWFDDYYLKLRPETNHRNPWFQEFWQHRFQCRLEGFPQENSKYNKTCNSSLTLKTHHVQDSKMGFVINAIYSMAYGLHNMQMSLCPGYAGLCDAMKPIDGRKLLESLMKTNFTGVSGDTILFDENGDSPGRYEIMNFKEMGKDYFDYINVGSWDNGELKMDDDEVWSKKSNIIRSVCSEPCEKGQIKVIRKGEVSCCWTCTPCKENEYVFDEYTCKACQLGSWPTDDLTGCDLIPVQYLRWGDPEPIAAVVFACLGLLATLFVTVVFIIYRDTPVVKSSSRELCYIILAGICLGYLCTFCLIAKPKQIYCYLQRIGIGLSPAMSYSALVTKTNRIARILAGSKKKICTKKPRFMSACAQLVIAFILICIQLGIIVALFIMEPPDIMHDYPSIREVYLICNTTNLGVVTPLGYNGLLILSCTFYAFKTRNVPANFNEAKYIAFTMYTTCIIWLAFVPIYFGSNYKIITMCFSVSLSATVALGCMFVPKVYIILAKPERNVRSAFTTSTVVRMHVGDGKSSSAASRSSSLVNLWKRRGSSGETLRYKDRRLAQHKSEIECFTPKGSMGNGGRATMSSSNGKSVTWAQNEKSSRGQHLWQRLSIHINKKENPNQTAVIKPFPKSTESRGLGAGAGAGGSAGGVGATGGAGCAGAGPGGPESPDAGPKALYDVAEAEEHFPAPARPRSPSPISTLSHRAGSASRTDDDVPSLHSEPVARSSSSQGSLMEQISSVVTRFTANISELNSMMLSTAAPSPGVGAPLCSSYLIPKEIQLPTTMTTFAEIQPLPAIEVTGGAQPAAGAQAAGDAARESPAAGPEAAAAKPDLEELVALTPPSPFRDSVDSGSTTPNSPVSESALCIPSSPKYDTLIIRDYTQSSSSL
Chain of mGlu2 (Q14416 19-872): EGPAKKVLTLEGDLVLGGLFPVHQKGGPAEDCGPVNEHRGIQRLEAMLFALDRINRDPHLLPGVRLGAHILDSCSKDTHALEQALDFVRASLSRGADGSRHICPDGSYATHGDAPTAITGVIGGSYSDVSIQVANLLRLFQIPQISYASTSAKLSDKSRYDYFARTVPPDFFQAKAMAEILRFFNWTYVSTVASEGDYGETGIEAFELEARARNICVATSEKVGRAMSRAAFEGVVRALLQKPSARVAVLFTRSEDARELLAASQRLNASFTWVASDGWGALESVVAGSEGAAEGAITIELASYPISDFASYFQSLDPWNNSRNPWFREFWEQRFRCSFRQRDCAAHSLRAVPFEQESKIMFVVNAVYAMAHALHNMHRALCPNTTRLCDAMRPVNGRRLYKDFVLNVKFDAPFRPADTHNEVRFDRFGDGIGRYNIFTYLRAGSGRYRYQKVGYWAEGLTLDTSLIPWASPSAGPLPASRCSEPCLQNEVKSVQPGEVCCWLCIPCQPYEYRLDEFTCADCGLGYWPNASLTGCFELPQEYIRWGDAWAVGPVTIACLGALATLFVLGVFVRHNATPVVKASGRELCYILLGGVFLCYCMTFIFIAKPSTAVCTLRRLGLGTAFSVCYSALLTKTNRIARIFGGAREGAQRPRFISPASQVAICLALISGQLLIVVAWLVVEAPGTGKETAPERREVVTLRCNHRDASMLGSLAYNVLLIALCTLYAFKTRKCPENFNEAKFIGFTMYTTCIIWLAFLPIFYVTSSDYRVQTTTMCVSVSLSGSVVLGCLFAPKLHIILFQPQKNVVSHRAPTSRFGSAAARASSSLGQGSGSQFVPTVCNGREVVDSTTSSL
Chain of mGlu6 (O15303 25-877): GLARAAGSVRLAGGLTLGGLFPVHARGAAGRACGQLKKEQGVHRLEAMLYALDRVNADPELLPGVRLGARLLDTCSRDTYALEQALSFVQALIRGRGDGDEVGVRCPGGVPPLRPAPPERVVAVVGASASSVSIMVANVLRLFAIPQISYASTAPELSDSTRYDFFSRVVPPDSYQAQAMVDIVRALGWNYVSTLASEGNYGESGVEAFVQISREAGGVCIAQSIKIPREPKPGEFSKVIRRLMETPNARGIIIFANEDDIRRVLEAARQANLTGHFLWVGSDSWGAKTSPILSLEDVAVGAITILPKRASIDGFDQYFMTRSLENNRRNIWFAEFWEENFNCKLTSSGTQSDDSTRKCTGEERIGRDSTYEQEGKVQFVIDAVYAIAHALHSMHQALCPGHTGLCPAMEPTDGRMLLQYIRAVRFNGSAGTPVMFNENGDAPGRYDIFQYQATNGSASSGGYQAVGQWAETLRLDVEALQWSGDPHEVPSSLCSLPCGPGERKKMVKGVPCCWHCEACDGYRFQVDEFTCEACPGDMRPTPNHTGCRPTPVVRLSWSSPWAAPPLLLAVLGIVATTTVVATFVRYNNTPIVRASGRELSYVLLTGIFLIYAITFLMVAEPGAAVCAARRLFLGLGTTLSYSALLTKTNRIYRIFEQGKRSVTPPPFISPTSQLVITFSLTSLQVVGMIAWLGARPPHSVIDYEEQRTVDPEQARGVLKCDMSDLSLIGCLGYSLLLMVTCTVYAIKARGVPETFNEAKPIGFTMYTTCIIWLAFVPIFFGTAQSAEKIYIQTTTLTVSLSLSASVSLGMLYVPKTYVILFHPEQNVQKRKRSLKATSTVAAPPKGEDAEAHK

In the case of `O=C(Nc1ccc(Cl)c(OCF)c1)c1ccccn1` [Compound 23], on mGlu4, the “fold enhancement in affinity” value is reported as 1.6 fold. In addition, the “κ (decay constant, slope of log concentration vs time profile)” value in data set [1] is 0.120.

`O=C(Nc1cccc(OC(F)F)c1)c1ccccn1` [Compound 3]: the Tmax for brain in data set [2] is 30 min. Further, the “brain:plasma (B/P) partition coefficient” value in data set [2] (rat, AUC0–8h, Brain/AUC0–8h, Plasma) is recorded as 9.9. For the same compound, in [1], the “κ (decay constant, slope of log concentration vs time profile)” value worked out at 0.132.

Regarding `[2H]C([2H])([18F])Oc1ccc(OC)cc1CN(C(C)=O)c1cc(F)ccc1Oc1ccccc1` [N-(5-fluoro-2-phenoxyphenyl)-N-(2-[^18F]fluoromethoxy-d2-5-methoxybenzyl)acetamide], the “half time (T1/2) in the brain” value in data set [3] (brain) was > 60 min. Further, the “half time (T1/2) in the plasma” value in data set [3] (plasma) is reported as 2.575 min.

Turning to `COc1cc(NC(=O)c2ccccn2)ccc1Cl` [Compound 2], the Tmax for brain in data set [2] is 30 min. In addition, the “κ (decay constant, slope of log concentration vs time profile)” value in data set [1] is reported as 0.141.

Consider `CSc1cccc(NC(=O)c2ccccn2)c1` [Compound 14], for which, on mGlu4, the “fold enhancement in affinity” value came out at 2.8 fold.

In the case of `Cc1ccnc(Nc2nc(-c3cn[nH]c3)c(C)s2)n1` [Compound 4], the “κ (decay constant, slope of log concentration vs time profile)” value in data set [1] is recorded as 0.099.

With `[2H]C([2H])(F)Oc1cc(NC(=O)c2ccccn2)ccc1Cl` [Compound 24], the “activity against mGlu2” value on mGlu2 is given as “little activity”. For the same compound, the “κ (decay constant, slope of log concentration vs time profile)” value in data set [1] was 0.093. Besides, the “activity against mGlu8” value on mGlu8 was “little activity”. For the same compound, at mGlu6, the “activity against mGlu6” value is reported as “little activity”. For the same compound, the “activity against mGlu5” value at mGlu5 is reported as “little activity”. For the same compound, the “activity against mGlu1” value at mGlu1 is “little activity”.
